Data from patent publication US11385234B2, “Methods and systems for detecting an analyte or classifying a sample” (Commonwealth Scientific and Industrial Research Organisation, priority 2012, dated 2022).

Assays:
[1] = test system: SGSR-113 (BRET^2 tagged str-113); assay: BRET^2 response of SGSR-113 to volatile ligands, plate based; type: biochemical, C. elegans; settings: in vitro
Text: SGSRs are chimaeras of C. elegans str-112, str-113, str-114, str-115, str-116 and str-114/113 with the BRET^2 tags GFP^2 and RLuc or RLuc2 inserted in the third intracellular loop and at the C-terminus, respectively. The positions of the third intracellular loops of STR proteins were predicted using “TMAP” an algorithm from “The Biology Workbench” (a web-based tool for prediction of transmembrane segments http.//seqtool.sdsc.edu). These were named SGSR-112, SGSR-113, SGSR-114/113, SGSR-114, SGSR-115 and SGSR-116.
Except for SGSR-112, which was commercially synthesised, SGSR expression cassettes were designed and made by introducing multiple restriction sites into the relevant gene-specific PCR primers. PCR products containing those sites were cloned into TOPO PCR vectors (Invitrogen) and then digested with the corresponding restriction enzymes (REs) and ligated into the expression cassettes.
The inventors selected a number of specific volatiles (including 1-hexanol, 1 butanol, butane-2,3-dione, 3-hydroxybutanone, 2-pentanone and 2 nonanone) for further testing based on GC-MS analysis of the headspace of OP50 bacteria grown on LB. […] This is the first time that a volatile ligand (or indeed any ligand) has been identified for a BRET-based GPCR sensor, in the absence of prior knowledge of the ligand based on research with the unmodified parental GPCR.

[2] = biological target: GFP^2—MBP—RLuc2 (Escherichia coli, UniProt P0AEX9); assay: BRET^2 tagged MBP sugar assay, plate reader; type: binding; settings: for response of BRET biosensor to sugar: 0.1 mM sugar, 30 minutes at 28° C., 1 μM protein
Description: 1 μM purified protein was used for all the energy transfer assays (final volume of 100 μL). […] Purified protein was incubated with the sugar dissolved in double deionised water or water for 30 minutes at 28° C.
(§1) BRET ratios were calculated as the ratio of maximum acceptor emission intensity to maximum donor emission intensity.
All data analysis was carried out using GraphPad Prism (version 5 for Windows, Graphpad Software, San Diego, Calif., USA). All data will be reported as means± standard deviation (SD) unless otherwise stated in the text. Two-tailed unpaired t-tests will be performed using Graphpad prism. Statistical significance is defined as p<0.05.

[3] = biological target: T1, FLIPmal-2μ (FRET tagged MBP receptor) (Escherichia coli, UniProt P0AEX9); settings: cited from earlier work
T1 construct: fused on or other part: FRET pair fused to the N- and C-terminus of MBP; From Fehr et al. 2002 these are a cyan and a yellow GFP variant

[4] = test system: GFP^2—MBP—RLuc2 W140A; assay: BRET^2 tagged MBP W140A mutant, plate reader; type: binding; settings: 0.1 mM maltose
Description: The W140 mutation was introduced into pRSET GFP^2—MBP—RLuc2 using site-directed mutagenesis (Stratagene) using primers C1 ([…]) (SEQ ID NO:11) and C2 ([…]) (SEQ ID NO:12). Nucleotide and amino acid sequences for BRET^2 tagged MBP receptor provided a SEQ ID NOs: 3 to 6).
1 μM purified protein was used for all the energy transfer assays (final volume of 100 μL). 1 μM purified protein was prepared by diluting the protein in phosphate buffer solution (PBS, 0.058 M […], 0.017 NaH2PO4, 0.068 M NaCl (pH 7.4)). Purified protein was incubated with the sugar dissolved in double deionised water or water for 30 minutes at 28° C. Following incubation 16.67 μM coelenterazine 400a was added and the signal was recorded immediately.
as §1

[5] = biological target: T2, thrombin (Bos taurus, UniProt P00735); assay: Hirudin pre-incubation in thrombin cleavage assay of GFP^2-RG-RLuc (BRET^H ratio, SDS-PAGE); type: biochemical
T2 construct: purchased Amersham Biosciences
Description: Various concentrations of thrombin were added to purified GFP^2-RG-RLuc biosensor and incubated at 30° C. for 90 minutes. To measure the extent of thrombin cleavage the sample mixture following incubation and the native CLZ solution were pumped from separate syringes into the two inlet channels and allowed to flow through the main channel. Diffusion between the two streams induced a BRET reaction at the interface. Recombinant hirudin from yeast (Sigma) was incubated with thrombin at room temperature for ten minutes prior to the protease assay.
To confirm complete thrombin cleavage of the GFP^2-RG-RLuc biosensor, SDS-PAGE analysis was carried out. Proteins (2.5 μg) were diluted in 1× sample loading buffer (Invitrogen) for SDS-gel electrophoresis in a 12% Bis-Tris gel with MOPS running buffer (NuPAGE, Invitrogen). Bands were stained with Fast Stain™ (Fisher) and then visualised.
Using the microplate spectrometer, hybrid BRET ratios were calculated as the ratio of bioluminescence emissions measured at 500 nm and 470 nm. Using the microchip system, the hybrid BRET ratio was calculated as ratio of the long wavelength emission (515 nm-555 nm) to the short wavelength emission (430 nm-455 nm) (Pfleger and Eidne, 2006). To allow comparison between the two different detection systems, the Hybrid BRET ratios were normalized by expressing them as a multiple of the BRET ratio without added thrombin, in the same measurement system. All data are reported as means±standard deviation (SD). Two-tailed unpaired t-tests were performed using Graphpad prism (version 5.00 for Windows, Graphpad Software, San Diego, Calif., USA). Statistical significance is defined as p<0.05.

[6] = biological target: GMR sensor (GFP^2—MBP—RLUC2) (Escherichia coli, UniProt P0AEX9); settings: 0.1 mM sugar
Description: On-chip measurements were carried out with microfluidic mixers with two inlets, a passive micromixer and an integrated optical detection chamber. BRET^2 measurements were recorded by using two photo multiplier tubes one equipped with an RLuc/Clz400a emission filter (410 nm bandpass 80 nm) and the other with a GFP^2 emission filter (515 nm bandpass 30m). The optical emission was collected by using an optical fiber with 1 mm core diameter aligned with on-chip optical detection chamber through a dichroic mirror.
The preparation was then mixed on-chip with 5 μM coelenterazine 400a and the optical signal was recorded from the detection chamber. The control experiments was carried out by incubating protein preparations with water and mixing on the chip under the same conditions.
Sensitivity assays were carried out on a two input microfluidic mixing device (FIG. 8b) with a serpentine common channel of L=18 mm. The BRET reaction chamber was Ø=4 mm and H=1 mm with no mirror. A bifurcated light guide was used with a 6 mm trunk and NA=0.59. […] The incubated sample and 31.25 μM Clz400a substrate were each pumped onto the chip at input flow rates of 400 μl/hr. The trunk end of the light guide was used to collect signal from the BRET reaction chamber. […] The BRET^2 signal was measured at each concentration. […]

## CCCCCCO [1-hexanol]
[1]
  detectable level: parts per billion (nM) levels

## OC[C@H]1O[C@H](O[C@H]2[C@H](O)[C@@H](O)C(O)O[C@@H]2CO)[C@H](O)[C@@H](O)[C@@H]1O (mixture of isomers) [maltose]
[2]; 0.1 mM maltose
  incubation time at which BRET^2 response reached a maximum: 30 min
[3]; Fehr et al., 2002
  signal change, FRET: ~12%
[3]; two log units
  linear range of FRET response: 0.26 to 21.12 µM
[4]
  BRET^2 response to maltose: abolished

## hirudin
[5]; 54 nM thrombin pre-treated with 2 units hirudin, 10 minutes, room temperature
  BRET^H ratio with pre-addition of hirudin: 1.08±0.14
[5]; 2 units hirudin, 10 minutes, room temperature
  effect of hirudin on thrombin induced reduction in BRET^H ratio: prevented the thrombin induced reduction
[5]; 2 units hirudin, SDS-PAGE lane 6
  effect of hirudin on cleavage of fusion protein, SDS-PAGE: inhibited the formation of the two components

## OC[C@H]1O[C@@](CO)(O[C@H]2O[C@H](CO)[C@@H](O)[C@H](O)[C@H]2O)[C@@H](O)[C@@H]1O [sucrose]
[2]
  response of BRET biosensor to sugar: did not respond
[6]
  increase in BRET^2 ratio over no sugar control, on chip: 15%

## OC[C@H]1O[C@H](OC[C@H]2O[C@H](O[C@]3(CO)O[C@H](CO)[C@@H](O)[C@@H]3O)[C@H](O)[C@@H](O)[C@@H]2O)[C@H](O)[C@@H](O)[C@H]1O [raffinose]
[2]
  response of BRET biosensor to sugar: did not respond
